# Measurements taken from ChEMBL document CHEMBL1124819, “1,9-Alkano-bridged 2,3,4,5-tetrahydro-1H-3-benzazepines with affinity for the alpha 2-adrenoceptor and the 5-HT1A receptor” (J Med Chem, 1990).
# Assays:
# [1] = biological target: T1, 5-hydroxytryptamine receptor 1A (Rattus norvegicus, UniProt P19327); assay: Binding affinity against 5-hydroxytryptamine 1A receptor in rat cerebral cortical membrane using [3H]-8-OH-DPAT as radioligand.; assay type: cell membranes
# T1 sequence (P19327 whole entry): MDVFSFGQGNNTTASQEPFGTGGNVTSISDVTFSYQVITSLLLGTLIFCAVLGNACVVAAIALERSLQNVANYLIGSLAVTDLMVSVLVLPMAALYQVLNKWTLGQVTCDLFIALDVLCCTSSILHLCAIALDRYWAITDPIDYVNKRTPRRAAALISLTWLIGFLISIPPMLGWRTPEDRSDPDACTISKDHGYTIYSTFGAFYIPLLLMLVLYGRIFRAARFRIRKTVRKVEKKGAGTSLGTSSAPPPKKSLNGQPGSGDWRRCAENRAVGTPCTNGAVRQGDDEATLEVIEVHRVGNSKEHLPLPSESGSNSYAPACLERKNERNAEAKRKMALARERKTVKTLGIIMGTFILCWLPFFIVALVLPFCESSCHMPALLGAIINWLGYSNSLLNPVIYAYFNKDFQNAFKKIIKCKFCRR
# [2] = biological target: T2, Adrenergic receptor alpha-2 (Rattus norvegicus, UniProt P22086+P19328+P22909); assay: Binding affinity against alpha-2 adrenergic receptor in rat cerebral cortical membrane using [3H]yohimbine as radioligand.; assay type: cell membranes
# T2 sequence (P22086 whole entry): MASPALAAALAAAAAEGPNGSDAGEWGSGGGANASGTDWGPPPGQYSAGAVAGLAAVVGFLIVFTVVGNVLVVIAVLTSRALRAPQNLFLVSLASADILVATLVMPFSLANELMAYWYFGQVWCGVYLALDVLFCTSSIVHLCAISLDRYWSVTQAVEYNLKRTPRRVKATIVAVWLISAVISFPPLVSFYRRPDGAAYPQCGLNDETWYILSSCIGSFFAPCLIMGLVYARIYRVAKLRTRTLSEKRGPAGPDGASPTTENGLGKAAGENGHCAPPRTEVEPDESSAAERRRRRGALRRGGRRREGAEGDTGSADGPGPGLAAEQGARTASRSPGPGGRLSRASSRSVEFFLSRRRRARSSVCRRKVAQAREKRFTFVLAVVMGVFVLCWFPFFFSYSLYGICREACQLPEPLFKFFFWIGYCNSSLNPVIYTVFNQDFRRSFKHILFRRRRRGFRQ
# T2 sequence (P19328 whole entry): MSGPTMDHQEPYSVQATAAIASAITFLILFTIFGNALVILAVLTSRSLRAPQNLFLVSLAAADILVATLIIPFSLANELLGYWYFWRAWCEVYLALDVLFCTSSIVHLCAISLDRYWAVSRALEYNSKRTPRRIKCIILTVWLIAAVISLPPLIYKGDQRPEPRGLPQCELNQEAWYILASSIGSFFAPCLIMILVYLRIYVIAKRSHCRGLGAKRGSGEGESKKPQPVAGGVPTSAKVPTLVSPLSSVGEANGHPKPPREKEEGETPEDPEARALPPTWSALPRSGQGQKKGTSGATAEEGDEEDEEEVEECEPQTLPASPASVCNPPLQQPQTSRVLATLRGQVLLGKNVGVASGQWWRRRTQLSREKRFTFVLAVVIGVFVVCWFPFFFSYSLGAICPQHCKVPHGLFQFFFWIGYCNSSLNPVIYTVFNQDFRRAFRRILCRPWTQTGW
# T2 sequence (P22909 whole entry): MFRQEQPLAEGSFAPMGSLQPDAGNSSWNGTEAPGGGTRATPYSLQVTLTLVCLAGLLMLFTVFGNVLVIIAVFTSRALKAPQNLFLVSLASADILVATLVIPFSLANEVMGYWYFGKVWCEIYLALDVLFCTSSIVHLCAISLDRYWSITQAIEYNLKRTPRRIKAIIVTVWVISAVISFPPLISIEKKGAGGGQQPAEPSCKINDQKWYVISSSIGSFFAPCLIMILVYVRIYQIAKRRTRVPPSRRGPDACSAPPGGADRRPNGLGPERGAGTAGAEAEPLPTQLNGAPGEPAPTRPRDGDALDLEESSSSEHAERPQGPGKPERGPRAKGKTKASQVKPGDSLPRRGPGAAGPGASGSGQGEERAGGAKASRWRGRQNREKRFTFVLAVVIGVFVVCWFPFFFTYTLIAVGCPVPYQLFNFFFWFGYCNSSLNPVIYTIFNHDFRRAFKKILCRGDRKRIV
Compound,Ki [1],Log Ki [2]
Br.CN1CCc2cccc3c2C(CC3)C1 (stereo not given),15.8 nM,-6.6
Br.CN1CCc2c(Cl)ccc3c2C(CC3)C1 (stereo not given),25.1 nM,-8.1
Br.COc1ccc2c3c1CCN(C)CC3CC2 (stereo not given),100 nM,-6.9
Br.CN1CCc2c(Cl)ccc3[nH]cc(c23)C1,31.6 nM,-6.8
Br.CN1CCc2ccc(Cl)c3c2C(CCCC3)C1 (stereo not given),5010 nM,-6.2
Cl.O=C1CC2(CCCC2)CC(=O)N1CCCCN1CCc2cccc3c2C(CCC3)C1 (stereo not given),39.8 nM,-5.9
Cl.c1ccc(CCN2CCc3cccc4c3C(CCC4)C2)cc1 (stereo not given),794 nM,-6.2
C=CCN1CCc2c(OC)ccc3c2C(CCC3)C1.Cl (stereo not given),12.6 nM,-6
CCCN1CCc2cccc3c2C(CCC3)C1.Cl (stereo not given),50.1 nM,-6
CCN1CCc2cccc3c2C(CCC3)C1.Cl (stereo not given),50.1 nM,-6.2
C=CCOc1ccc2c3c1CCN(C)CC3CCC2.Cl (stereo not given),631 nM,-7.5
CN1CCc2c(O)ccc3c2C(CCC3)C1.Cl (stereo not given),316 nM,-6.2
COc1ccc2c3c1CCN(C)CC3CCC2.Cl (stereo not given),25.1 nM,-6.8
COc1ccc2c3c1CN(C)CC3CCC2.Cl (stereo not given),200 nM,-6.8
COc1ccc2c3c1CN(C)CCC3CCC2.Cl (stereo not given),6310 nM,-5.9
CN1CCc2c[nH]c3cccc(c23)C1.Cl,1260 nM,-6
COc1ccc2c3c1CCN(C)C3CCC2 (stereo not given),3160 nM,
CN1CCc2cccc3c2C(CCC3)C1.Cl (stereo not given),50.1 nM,-5.9
CN1CCc2cccc3c2[C@H](CCC3)C1.Cl,31.6 nM,-5.6
O=C1CC2(CCCC2)CC(=O)N1CCCCN1CCc2ccccc2CC1,25.1 nM,

Compound,Ki [1],Log Ki [2]
CN1CCc2cccc3c2C(CCCC3)C1.Cl (stereo not given),398 nM,-5.9
C=CCN1CCc2cccc3c2C(CCC3)C1.Cl (stereo not given),20 nM,-6.1
CN1CCc2cccc3c2[C@@H](CCC3)C1.Cl,63.1 nM,-6.4
Cl.c1cc2c3c(c1)CCNCC3CCC2 (stereo not given),200 nM,-5.9
CN1CCc2cccc(Cl)c2CC1,100 nM,-8.1
Br.CN1CCc2cccc3[nH]cc(c23)C1,100 nM,-6.3
O=C1CC2(CCCC2)CC(=O)N1CCCCN1CCc2cccc(Cl)c2CC1,5.01 nM,
CN1CCc2ccc(Cl)c3c2C(CC3)C1 (stereo not given),25.1 nM,-6.8
C=CCN1CCc2c(Cl)ccc3c2C(CCC3)C1 (stereo not given),7.94 nM,-6.1
CN1CCc2c(Cl)ccc3c2C(CCCC3)C1 (stereo not given),79.4 nM,-6.5
CN1CCc2ccc(Cl)c3c2[C@@H](CCC3)C1,126 nM,-6.4
CN1CCc2c(Cl)ccc3c2[C@@H](CCC3)C1,20 nM,-7
O=C1CC2(CCCC2)CC(=O)N1CCCCN1CCc2c(Cl)ccc3c2C(CCC3)C1 (stereo not given),7.94 nM,-5.5
CN1CCc2c(Cl)ccc3c2C(CCC3)C1 (stereo not given),10 nM,-6.9
CN1CCc2c(Cl)ccc3c2[C@H](CCC3)C1,6.31 nM,-6.6
CCN1CCc2c(Cl)ccc3c2C(CCC3)C1 (stereo not given),15.8 nM,-6.5
CN1CCc2ccc(Cl)c3c2[C@H](CCC3)C1,50.1 nM,-5.8
CCCN1CCc2c(Cl)ccc3c2C(CCC3)C1 (stereo not given),31.6 nM,-6.4
CN1CCc2ccc(Cl)c3c2C(CCC3)C1 (stereo not given),79.4 nM,-6
